This note sets out measurements from US20100166804A1, “METHODS” (priority 2007, published 2010).

For test [1], the system named is patients with a history of peanut allergy. As to the kind of experiment: Double-blind randomized oral food challenge with peanut flour (Example 1). The test is classed as in vivo. Particulars: 1 mg ketotifen orally twice daily vs placebo; oral food challenge at two, four and six weeks. The protocol: (§1) To analyze hypersensitivity to an allergen, e.g., peanut, a double-blind, randomized, dose-ranging study is carried out with patients with a history of peanut allergy manifested by urticaria, angioedema, respiratory tract symptoms or hypotension generally using the methods described in Israel et al., Am. J. Respir. Crit. Care Med., (2000) 164:75-80. Eligible patients include those with serum total IgE level of 30-1000 IU/mL and/or a positive skin-prick test to peanut. Patients must have asthma condition under control with a forced expiratory volume in one second that is at least 80 percent of the predicted value. Patients may not have taken systemic corticosteroids, beta-blockers, acetylcholinesterase, aspirin, antihistamines and anti-depressants prior to and throughout the study.
Before enrollment, threshold level for reactivity to peanut allergen is confirmed by a screening double-blind, placebo-controlled oral food challenge. […] Vital signs are checked, chest auscultation is performed, and peak expiratory flow rates are monitored every 30 minutes during the food challenge and for at least 2 hours after the last dose or the abatement of any symptoms or signs. […]
(§2) Peak expiratory flow rates are monitored every 30 minutes during food challenge for at least 2 hours after the last does or abatement of any symptoms or signs. […]

Test [2] shares this test system. The test can be described thus: Double-blind randomized dose-ranging oral food challenge with peanut flour (Example 3). Type of test: in vivo. Particulars: 0.5, 1 or 2 mg ketotifen orally twice daily vs placebo; oral food challenge at two, four and six weeks. The protocol:
as §1, with “to” for “to an allergen, e.g.,”, “take” for “have taken”, “during” for “prior to and throughout”
Before enrollment, threshold level for reactivity to peanut allergen is confirmed by a screening double-blind, placebo-controlled oral food challenge. Base line spirometry, peak expiratory flow rates and continuous cardiac monitoring is established. Vital signs are checked, chest auscultation is performed, and peak expiratory flow rates are monitored every 30 minutes during the food challenge and for at least 2 hours after the last dose or the abatement of any symptoms or signs. […]
as §2

Test [3] concerns patients with a history of bee sting allergy. As to the kind of experiment: Double-blind randomized dose-ranging bee venom challenge (Example 4). Type of test: in vivo. The following applies: 0.5, 1 or 2 mg ketotifen orally twice daily vs placebo; bee venom challenge at two, four and six weeks. As for the experimental part: as §1, with “bee venom,” for “an allergen, e.g., peanut,”, “bee sting” for “peanut”, “bee venom.” for “peanut.”, “take” for “have taken”, “during” for “prior to and throughout”
Before enrollment, threshold level for reactivity to bee venom allergen is confirmed by a screening double-blind, placebo-controlled bee venom challenge. […] Vital signs are checked, chest auscultation is performed, and peak expiratory flow rates are monitored and bee venom specific IgE level and basal tryptase level are measured every 30 minutes during the challenge and for at least 2 hours after the last dose or the abatement of any symptoms or signs. […] The wheal size is evaluated 15 min after application. […] Patients are closely monitored for any systemic reaction. […]

The test system of test [4] is subjects with an allergy to peanut. The test can be described thus: Oral peanut tolerization therapy with concomitant ketotifen fumarate, randomized double-blind placebo-controlled (Example 5). The test is classed as in vivo, patients. As for the experimental part: A study is performed to evaluate the dose-related effects of ketotifen fumarate on the scope and severity of allergic signs and symptoms resulting from concomitant oral peanut tolerization therapy. The study also evaluates the effects of discontinuation of ketotifen therapy on the scope and severity of allergic signs and symptoms resulting from concomitant oral peanut tolerization therapy after 12 or 16 weeks, while oral peanut tolerization therapy is continued. The study also evaluates the effects of ketotifen therapy on the scope and severity of allergic signs and symptoms resulting from concomitant oral peanut tolerization therapy when ketotifen dosing is initiated after 12 weeks of oral peanut tolerization therapy. The study generally consists of screening, baseline, treatment, and post-treatment follow-up periods, and is randomized, double-blind, placebo-controlled, and in parallel groups.
Patients selected are generally healthy subjects between the ages of 2 and 50 with an allergy to peanut which provokes signs and symptoms of an anaphylactic reaction. The patients may also have co-morbid atopic dermatitis and/or allergic rhinitis. If a patient is selected for the study, they are randomly assigned a treatment of 0.5 mg oral ketotifen fumarate, 2.0 mg oral ketotifen fumarate, or placebo (n=12 for each group).
During the treatment period, patients receive ketotifen fumarate or placebo for one week prior to tolerization therapy. At week 1, oral peanut tolerization therapy is begun with peanut flour, and safety evaluations are performed. The oral dose of peanut flour is increased at weeks 3, 5, 7, 9, 11 and 13, and safety evaluations are performed at that time.
At week 13, half of the patients in each of the ketotifen groups are switched in a double-blind fashion to placebo, and subjects in the placebo treatment group are switched in a double-blind fashion to receive 2.0 mg oral ketotifen. Patients continue in the study for an additional 4 weeks. At weeks 15 and 17, the peanut flour dose is increased, and safety evaluations are performed. […]

[5] abbreviates: patients initially receiving ketotifen, switched to placebo at week 13, final 4 weeks.

As for `CN1CCC(=C2c3ccccc3CC(=O)c3sccc32)CC1` [ketotifen], the “patients' threshold sensitivity to peanut upon oral ingestion (change from base line in log-transformed threshold dose of peanut flour that induced hypersensitivity)” value in test [1] is “significantly increase”. For the same molecule, the “patients' tolerance to peanut upon oral ingestion (change from base line in log-transformed threshold dose of peanut flour that induced hypersensitivity)” value in test [2] is given as “significantly increase”. The “patients' tolerance to bee venom (change from base line in log-transformed threshold dose of bee venom that induced hypersensitivity)” value in test [3] is reported as “significantly increase”. The “amount of peanut flour that is well-tolerated” value in test [4] (0.5 mg or 2.0 mg oral ketotifen fumarate vs placebo during oral peanut tolerization therapy) is given as “tolerate more peanut flour than patients in the placebo group”. Also, in test [4] (setting [5]), the “escape therapy required, vs patients continuously receiving ketotifen” value is listed as “require similar escape therapy” and the “escape therapy required, vs patients continuously receiving the placebo” value is “require less escape therapy”.
